The values below come from US20240041851A1 (priority 2020, published 2024).

Like-named read-outs stand apart in the source and are kept apart here.

Test [1] has as its system SARS-CoV-2. Description: Simultaneous Stellaris FISH and immunofluorescence: viral +strand gRNA and nucleocapsid protein (Np). The following applies: for restoration of viral gRNA levels in MTX-treated cells: 10011M thymidine or 1 mM formate added to 1 μM MTX; for restoration of viral gRNA levels in MTX-treated cells / rescue of translation of viral Np in MTX-treated cells: 48 hours; for rescue of translation of viral Np in MTX-treated cells: thymidine or 1 mM formate added to 1 μM MTX. It is filed as cell-based.

For test [2], the system named is SARS-CoV-2 infected Vero E6 TMPRSS2+ cells. The test is described as follows: Live cell number (cytopathic effect) quantification assay, Viral Tox-Glo. It is filed as cell-based, African Green Monkey. The conditions noted are these: for rescue of CPE in MTX-treated cells: thymidine or 1 mM formate added to 1 μM MTX, 48 hours. (Damage to the host cells serves as the signal in cytopathic effect assays.)

Test [3] has as its system SARS-CoV-2. It is filed as cell-based. The following applies: for rescue of virion production in MTX-treated cells: thymidine or 1 mM formate added to 1 μM MTX, 48 hours.
For another test, the system named is RNA flavivirus Zika. The conditions noted are these: cited from earlier work.

Consider `CCCCS(=N)(=O)CCC(N)C(=O)O` [BSO, L-buthionine-sulfoximine], for which, in the test with SARS-CoV-2 [1], the Np levels entry is “did not have any apparent effect” and the “viral gRNA levels” value was “did not have any apparent effect”.

Regarding `O=C(COc1ccc(Cl)cc1)NC1CCC(NC(=O)COc2ccc(Cl)cc2)CC1` (centres unmarked) [ISRIB], in the test on SARS-CoV-2 [1], the Np expression result is recorded as “did not appreciably diminish” and the “viral gRNA expression” value is given as “did not appreciably diminish”. In test [2], the “number of live cells” value is on record as “increased the number of live cells”.

In the case of `C/C=C(\C)[C@H](O)[C@H](C)/C=C(C)/C=C/C/C(C)=C/Cc1nc(OC)c(OC)c(O)c1C` [Piericidin A], the secreted virus levels result in the test with SARS-CoV-2 [3] is “did not have a major impact”. Also, the secreted virus levels entry in the test with SARS-CoV-2 [3] (listed as PierA) is given as “did not reduce viral replication”. In the test on SARS-CoV-2 [1], the Np levels entry is “did not have a major impact” and the “viral gRNA levels” value is given as “did not have a major impact”. Also, the “viral CPE” value in test [2] is “reduced viral CPE”.

In the case of `Cc1n[nH]c2c1C(c1cc(CO)cc(-c3ccccc3)c1)(C(C)C)C(C#N)=C(N)O2` (centres unmarked) [SHIN1], in the test on SARS-CoV-2 [3], the “reduction of infectious virus titer” value is listed as about 1 log. Besides, in the test on SARS-CoV-2 [1], the “+strand gRNA levels” value was “diminished” and the nucleoprotein levels result is on record as “diminished”. The “viral CPE” value in test [2] is given as “induced resistance to viral CPE”.

As for `O=C[O-].[Na+]` [formate, sodium formate], in the test on SARS-CoV-2 [3] (1 mM formate added to 10 μM SHIN1, 48 hours), the “reversal of SHIN1 effects (virus titer, gRNA, nucleoprotein, CPE)” value is “fully reversed”. In the test with SARS-CoV-2 [3], the “rescue of virion production in MTX-treated cells” value is listed as “unable to rescue”. Also, in the test with SARS-CoV-2 [1], the “restoration of viral gRNA levels in MTX-treated cells” value is “could only partially restore” and the “rescue of translation of viral Np in MTX-treated cells” value was “unable to rescue”. Moreover, in test [2], the “rescue of CPE in MTX-treated cells” value is “unable to rescue”.

On to `O=c1[nH]cnc2nc[nH]c12` [hypoxanthine], for which, in the test on SARS-CoV-2 [3], the “reversal of all effects of MTX (CPE, gRNA, Np, infectious virion)” value is given as “could be reversed”.

Take `CN(Cc1cnc2nc(N)nc(N)c2n1)c1ccc(C(=O)N[C@@H](CCC(=O)O)C(=O)O)cc1` [methotrexate]: in the test with SARS-CoV-2 [3], the “diminished secretion of infectious virion” value is listed as about 2 log. In the test with SARS-CoV-2 [1], the Np levels entry was “reduced” and the “viral gRNA levels” value is given as “reduced”. Besides, the “virus-induced CPE” value in test [2] is reported as “significantly blocked virus-induced CPE”. The “replication of the RNA flavivirus Zika” value with RNA flavivirus Zika is “impair replication”.

For the compound `Cc1cn([C@H]2C[C@H](O)[C@@H](CO)O2)c(=O)[nH]c1=O` [thymidine], the “rescue of virion production in MTX-treated cells” value in the test on SARS-CoV-2 [3] is “unable to rescue”. Moreover, in the test with SARS-CoV-2 [1], the “restoration of viral gRNA levels in MTX-treated cells” value was “could only partially restore” and the “rescue of translation of viral Np in MTX-treated cells” value is “unable to rescue”. The “rescue of CPE in MTX-treated cells” value in test [2] is recorded as “unable to rescue”.
